Measurements taken from article PMC5844530, “Fosmetpantotenate (RE-024), a phosphopantothenate replacement therapy for pantothenate kinase-associated neurodegeneration: Mechanism of action and efficacy in nonclinical models” (PLoS ONE, 2018).
Several values for one entry are separate records, joined by “and”; a condition that tells them apart may be missing. Equal values may be shown once. Read-outs that look alike come from different tables or passages of the source.

Assay: Microdialysis (striatal dialysate and blood) in cynomolgus monkeys
Type: in vivo, cynomolgus monkey
Details: for Cmax: po, read-out: Cmax; for AUC: read-out: AUC
Protocol: Monkeys were sedated by intramuscular (i.m.) ketamine administration and cannulated for intravenous (i.v.) administration of propofol infusion (initiated 15–30 min after ketamine administration). Subsequently, the animals were placed in an magnetic resonance imaging (MRI)-compatible stereotaxic frame (Kopf Model 1430), and T1 and T2 weighted scans (for up to 1 h) were carried out with a 7 cm loop-coil in a 3 Tesla Siemens Magnetom TIM Trio (Germany). To derive the coordinates, Digital Imaging and Communications in Medicine (DICOM) files were transformed into Neuroimaging Informatics Technology Initiative (NIFTI) format. NIFTI-compatible images were loaded into 3D viewer software (MRIcro version 1.40 build 1), and the stereotaxic zero in the MRI image was determined using the coordinates of the earbar-tips. Coordinates for placement of the guide cannulas were calculated for every individual animal by use of MRI images and a primate brain map.
On a separate day, microdialysis guide cannulas were placed bilaterally in the head of the caudate nucleus using the same MRI compatible stereotaxic frame (Kopf Model 1430), under isoflurane anesthesia. Prior to surgery, animals were administered ketamine (i.m.), and subsequently anesthetized with isoflurane (0.8%-2% inhalation) while artificially ventilated with O2/N2O (40/60) at 60 to 80 mL tidal volume via an intratracheal tube. During surgery, subcutaneous or i.v. fluids were provided. Animals were allowed to recover from the anesthesia in a warmed environment, single housed, and given at a minimum a 14-day post-surgery recovery time. The following medications were administered to reduce pain and inflammation, as well as reduce the chance of post-operative infection: meloxicam (Metacam 5 mg/mL, 0.2 mg/kg, buprenorphine (Temgesic, 0.3 mg/mL, 0.0038 mg/kg), enrofloxacine (25 mg/mL, 5 mg/kg), and amoxicillin (150 mg/mL, 15 mg/kg).
Samples were stored in -80°C.
From monkeys only, whole blood samples (0.5 mL) were collected from the femoral vein at -1, 0, 1, 2, and 3 h relative to dosing and transferred immediately to chilled polypropylene 15 mL vials containing 2500 μL of 0.15% formic acid in acetonitrile, mixed, and placed on dry ice. After the collections samples were stored at -80°C.
Sample preparation for monkey dialysate and blood samples: Concentrations of fosmetpantotenate (D1 and D2), PA, and PPA in monkey dialysate and blood samples were determined by Brains On-Line LLC. […] For dialysate quantitation, standards and QC samples were prepared in control dialysate (0.2% BSA in aCSF: water: 0.04% ascorbic acid in aqueous 0.02 M formic acid [4.5:24:6 v/v/v]). Standards, QC samples, and dialysate (10 μL) were mixed with 6 μL 20 mM formic acid and 0.01% ascorbic acid in water containing internal standard (10 ng/mL of ^15N/^13C3-PA) and analyzed by LC-MS/MS. Blood standards and QC samples were prepared in supernatant from control monkey blood which had been treated with 5 volumes of 0.15% formic acid in acetonitrile. Endogenous levels >LLOQ were detected for PA in control quenched blood only and quantitated at 56.56 nM based on calibration standard prepared in solvent. To compensate for endogenous PA in the calibration curve control blood, PA standard curve concentrations were spiked plus endogenous levels. Sample work-up of blood involved diluting 10 μL supernatant from study blood samples, standards, and QC samples with 90 μL of 20 mM formic acid and 0.01% ascorbic acid in water, then treating with 4 μL 20 mM formic acid and 0.01% ascorbic acid in water containing internal standard (10 ng/mL of ^15N/^13C3-PA) and analyzing by LC-MS/MS.

What does the source list for COC(=O)CCNC(=O)[C@H](O)C(C)(C)COP(=O)(N[C@@H](C)C(=O)OC)Oc1ccccc1 (mixture of isomers) [Fosmetpantotenate]?
fold increase in dialysate AUC from 100 to 300 mg/kg (PA basal adjusted, analyte = label): 5.0 fold; fold increase in blood estimated exposure from 100 to 300 mg/kg (blood): ~ 3.6 fold; concentration at 0.5 h (cynomolgus monkey, in vivo, 300 mg/kg, individual Cyno, Fosmetpantotentate 300 mg/kg PO, corrected for dilution, post-dose, time 0.5 hr, read-out: Fosmetpantotenate Dialysate Concentration): 2060 nM; concentration at 1 h (cynomolgus monkey, in vivo, 300 mg/kg, individual Cyno, Fosmetpantotentate 300 mg/kg PO, corrected for dilution, post-dose, time 1 hr, read-out: Fosmetpantotenate Dialysate Concentration): 393 nM; concentration at 1.5 h (cynomolgus monkey, in vivo, 300 mg/kg, individual Cyno, Fosmetpantotentate 300 mg/kg PO, corrected for dilution, post-dose, time 1.5 hr, read-out: Fosmetpantotenate Dialysate Concentration): 76 nM; concentration at 2 h (cynomolgus monkey, in vivo, 300 mg/kg, individual Cyno, Fosmetpantotentate 300 mg/kg PO, corrected for dilution, post-dose, time 2 hr, read-out: Fosmetpantotenate Dialysate Concentration): 20 nM; concentration at 2.5 h (cynomolgus monkey, in vivo, 300 mg/kg, individual Cyno, Fosmetpantotentate 300 mg/kg PO, corrected for dilution, post-dose, time 2.5 hr, read-out: Fosmetpantotenate Dialysate Concentration): 7.12 nM; concentration at 1 h (cynomolgus monkey, in vivo, 300 mg/kg, individual Cyno, Fosmetpantotentate 300 mg/kg PO, post-dose, time 1 hr, read-out: Fosmetpantotenate Blood Concentration): 7390 nM; concentration at 3 h (cynomolgus monkey, in vivo, 300 mg/kg, individual Cyno, Fosmetpantotentate 300 mg/kg PO, post-dose, time 3 hr, read-out: Fosmetpantotenate Blood Concentration): 227 nM; Cmax (cynomolgus monkey, in vivo, 100 mg/kg, blood, fosmetpantotenate 100 mg/kg PO, analyte = label): 1650 ± 1930 nM; Cmax (cynomolgus monkey, in vivo, 100 mg/kg, dialysate, fosmetpantotenate 100 mg/kg PO): 221 ± 253 nM; Cmax (cynomolgus monkey, in vivo, 300 mg/kg, dialysate, fosmetpantotenate 300 mg/kg PO, mean (individual values)): 1560 nM; AUC (cynomolgus monkey, in vivo, dialysate, fosmetpantotenate 100 mg/kg PO): 0.209 ± 0.234 µM·h; AUC (cynomolgus monkey, in vivo, dialysate, fosmetpantotenate 300 mg/kg PO, mean (individual values)): 1.03 µM·h; concentration at 3 h (cynomolgus monkey, in vivo, individual Cyno, Fosmetpantotentate 300 mg/kg PO, corrected for dilution, post-dose, time 3 hr, LLOQ D1=0.2 nM, D2=0.3 nM, read-out: Fosmetpantotenate Dialysate Concentration): 23.7 nM; Cmax (cynomolgus, cynomolgus monkey, in vivo, 300 mg/kg, blood, fosmetpantotenate 300 mg/kg PO, mean (individual values), analyte = label): 6040 nM; AUC (cynomolgus, cynomolgus monkey, in vivo, blood, fosmetpantotenate 100 mg/kg PO, analyte = label): 1.87 ± 1.96 µM·h; AUC (cynomolgus, cynomolgus monkey, in vivo, blood, fosmetpantotenate 300 mg/kg PO, mean (individual values), analyte = label): 6.81 µM·h; concentration at 3 h (individual Cyno, Fosmetpantotentate 300 mg/kg PO, corrected for dilution, post-dose, time 0.5 hr, read-out: Fosmetpantotenate Dialysate Concentration): 1059.88 nM; concentration at 3 h (individual Cyno, Fosmetpantotentate 300 mg/kg PO, corrected for dilution, post-dose, time 1 hr, read-out: Fosmetpantotenate Dialysate Concentration): 429.27 nM; concentration at 3 h (individual Cyno, Fosmetpantotentate 300 mg/kg PO, corrected for dilution, post-dose, time 1.5 hr, read-out: Fosmetpantotenate Dialysate Concentration): 72.40 nM; concentration at 3 h (individual Cyno, Fosmetpantotentate 300 mg/kg PO, corrected for dilution, post-dose, time 2 hr, read-out: Fosmetpantotenate Dialysate Concentration): 19.06 nM; concentration at 3 h (individual Cyno, Fosmetpantotentate 300 mg/kg PO, corrected for dilution, post-dose, time 2.5 hr, read-out: Fosmetpantotenate Dialysate Concentration): 4.54 nM; Fosmetpantotenate Dialysate Concentration (individual Cyno, Fosmetpantotentate 300 mg/kg PO, corrected for dilution, post-dose, time 3 hr, LLOQ D1=0.2 nM, D2=0.3 nM): BLQ; Fosmetpantotenate Dialysate Concentration (individual Cyno, Fosmetpantotentate 300 mg/kg PO, corrected for dilution, pre-dose, time 0 hr, LLOQ D1=0.2 nM, D2=0.3 nM): <LLOQ; Fosmetpantotenate Dialysate Concentration (individual Cyno, Fosmetpantotentate 300 mg/kg PO, corrected for dilution, pre-dose, time -0.5 hr, LLOQ D1=0.2 nM, D2=0.3 nM): <LLOQ; Fosmetpantotenate Dialysate Concentration (individual Cyno, Fosmetpantotentate 300 mg/kg PO, corrected for dilution, pre-dose, time -1 hr, LLOQ D1=0.2 nM, D2=0.3 nM): <LLOQ; concentration at 1 h (individual Cyno, Fosmetpantotentate 300 mg/kg PO, post-dose, time 1 hr, read-out: Fosmetpantotenate Blood Concentration): 4687.62 nM; concentration at 1 h (individual Cyno, Fosmetpantotentate 300 mg/kg PO, post-dose, time 2 hr, read-out: Fosmetpantotenate Blood Concentration): 1026.66 nM and 312.23 nM; concentration at 1 h (individual Cyno, Fosmetpantotentate 300 mg/kg PO, post-dose, time 3 hr, read-out: Fosmetpantotenate Blood Concentration): 183.68 nM; Fosmetpantotenate Blood Concentration (individual Cyno, Fosmetpantotentate 300 mg/kg PO, pre-dose, time 0 hr relative to dose): <LLOQ; Fosmetpantotenate Blood Concentration (individual Cyno, Fosmetpantotentate 300 mg/kg PO, pre-dose, time -1 hr relative to dose): <LLOQ
